# pEC50, pIC50: −log10 of the molar value. Several values for one entry are separate records, joined by “and”; a condition that tells them apart may be missing. Equal entries are not always repeated. Structures can show the parent of a compound that is named as a salt.
# Tests used:
# human Fpn = target: T1, human Fpn (Homo sapiens, UniProt Q9NP59); assay: Biophysical Ferroportin-Hepcidin Binding Assay (fluorescence polarization); conditions: average of multiple measurements; 1 μM human Fpn, 20 nM TMR-hepcidin; read-out: FP IC50
# T1 construct: FLAG (C); made in house; host or cells: Pichia pastoris
# T1 sequence (Q9NP59 1-571): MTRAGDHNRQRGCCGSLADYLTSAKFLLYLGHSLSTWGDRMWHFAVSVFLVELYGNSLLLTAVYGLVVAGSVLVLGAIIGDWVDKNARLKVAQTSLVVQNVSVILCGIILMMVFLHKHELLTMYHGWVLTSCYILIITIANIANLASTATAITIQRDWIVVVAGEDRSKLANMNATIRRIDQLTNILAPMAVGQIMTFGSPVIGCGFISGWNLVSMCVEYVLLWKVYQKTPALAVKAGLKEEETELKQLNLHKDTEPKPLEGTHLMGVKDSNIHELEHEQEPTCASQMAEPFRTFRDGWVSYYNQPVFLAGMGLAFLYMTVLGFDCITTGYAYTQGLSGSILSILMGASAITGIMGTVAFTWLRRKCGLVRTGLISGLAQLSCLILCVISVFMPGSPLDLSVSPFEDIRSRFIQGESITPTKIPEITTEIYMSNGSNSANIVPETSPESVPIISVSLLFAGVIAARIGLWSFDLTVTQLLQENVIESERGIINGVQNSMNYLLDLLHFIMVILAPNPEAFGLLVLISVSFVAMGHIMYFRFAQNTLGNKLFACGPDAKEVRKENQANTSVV
# How it was run: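 Purified human Fpn (C-terminal FLAG tag, expressed in Pichia pastoris) at 1 μM final was incubated with 20 nM TMR-hepcidin and serially diluted compounds in duplicate for 90 min at room temperature. Binding inhibition was read as a dose-dependent fall in FP (mP), calculated from parallel and perpendicular fluorescence.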
# ferroportin (Fpn) = target: T2, ferroportin (Fpn) (Mus musculus, UniProt Q9JHI9); assay: Hepcidin Internalization Assay (J774); format: cell-based; conditions: average of multiple measurements; inhibition of TMR-hepcidin (25 nM) internalization into J774 cells; read-out: J774 IC50
# T2 construct: host or cells: J774 mouse macrophage cell line, Fe(III)-NTA induced
# T2 sequence (Q9JHI9 1-570): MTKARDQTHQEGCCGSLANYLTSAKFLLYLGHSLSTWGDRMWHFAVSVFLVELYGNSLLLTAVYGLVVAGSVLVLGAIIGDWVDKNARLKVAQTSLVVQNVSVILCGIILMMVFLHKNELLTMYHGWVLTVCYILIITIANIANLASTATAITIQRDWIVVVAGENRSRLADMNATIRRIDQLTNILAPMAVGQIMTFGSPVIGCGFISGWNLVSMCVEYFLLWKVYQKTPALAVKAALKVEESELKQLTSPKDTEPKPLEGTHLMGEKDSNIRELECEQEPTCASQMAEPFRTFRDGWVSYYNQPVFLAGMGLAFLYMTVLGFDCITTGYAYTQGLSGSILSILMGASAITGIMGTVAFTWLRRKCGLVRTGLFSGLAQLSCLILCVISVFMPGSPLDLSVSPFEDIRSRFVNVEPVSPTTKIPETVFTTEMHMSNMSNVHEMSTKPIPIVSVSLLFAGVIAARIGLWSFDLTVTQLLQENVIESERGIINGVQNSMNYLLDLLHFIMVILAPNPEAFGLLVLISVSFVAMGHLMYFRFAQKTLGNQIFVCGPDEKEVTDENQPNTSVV
# How it was run: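 Mouse J774 macrophages, loaded overnight with 200 μM Fe(III)NTA, incubated 2 h at 37 °C with test compounds and TMR-labeled hepcidin. Cell-associated TMR fluorescence, a proxy for hepcidin binding to Fpn and internalization, quantified by automated imaging with Hoechst nuclear counterstain after fixation; IC50 from log(inhibitor) vs. response fit, triplicates.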
# human Fpn-GFP fusion = target: T3, human Fpn-GFP fusion (Homo sapiens, UniProt Q9NP59); assay: Ferroportin Internalization and Degradation Assay (FACS); format: cell-based; conditions: average of multiple measurements, Fpn-GFP MFI, HEK-293 cell line #354, FACS; for DC50: read-out: EC50 ferroportin internalization and degradation
# T3 construct: expressed in transfected cells; host or cells: HEK-293 cell line #354 (derivative of HEK-293 Tet-ON Advanced, Clontech)
# T3 sequence (Q9NP59 1-571): T1 sequence (Q9NP59 1-571)
# Experimental: Growing HEK-293 #354 cells in doxycycline containing media induced expression of human Fpn-GFP fusion protein on the cell surface. […] Small molecular weight Fpn inhibitor compounds were tested for dose-dependent effects on the Fpn-GFP mean fluorescence intensity (MFI) on HEK-293 cell line #354, as described below. HEK #354 cells were harvested from ca. 80% confluent cultures, seeded at 0.6×10^6 (cells/ml in DMEM/F12 GlutaMAX™ medium (Invitrogen, Cat. 31331-028) containing 10% FBS (Clontech, Cat. 631106), 1% Penicillin-Streptomycin (Invitrogen, Cat. 15140-122), 200 μg/ml Hygromycin B (Invitrogen, Cat. 10687-010), Blasticidin 5 μg/ml, (Invitrogen, Cat. R210-01), 4 μg/ml doxycycline (Clontech, Cat. 631311), 50 μl per well of 384 well plates (Greiner; Cat. 781091) and grown at 37° C. with 5% CQ. After overnight incubation, 10 μl/well of dilution series of the test compounds were added in quadruplicates and plates were further incubated overnight at 37° C. with 5% CO2. Cells were washed once with FACS buffer (PBS containing 1% FBS, 2 mM EDTA and 0.05% NaN3), harvested in FACS buffer with 0.5 μg/ml propidium iodide (Sigma, Cat. P4864) and analyzed in a flow cytometer (CANTO™ II, BD Biosciences) equipped with high throughput sampler. Live HEK #354 cells were gated as propidium iodide negative population and analyzed for expression of Fpn-GFP.
SMILES,pIC50 (human Fpn),pIC50 (ferroportin (Fpn)),DC50 (human Fpn-GFP fusion) [µM],pEC50 (human Fpn-GFP fusion)
O=C(NCc1ccccc1)c1csc(CCNCc2nc3ccccc3[nH]2)n1 [Example 1],6.31,6.30,4.66,
O=C(Cn1cc(C(=O)NCc2ncccc2F)cn1)NCCc1nc2ccccc2[nH]1 [Example 117],5.05,5.01,,< 4.60 and > 4.30
O=C(NCc1ncccc1F)c1cccc(CCNCc2nc3ccccc3[nH]2)n1 [Example 133],5.60,5.34,20.7,
O=C(NCc1ncccc1F)c1csc(CCCNc2nc3ccccc3[nH]2)n1 [Example 135],4.43,5.47,,4.67
O=C(NCc1ncccc1F)c1csc(CCN(Cc2nc3ccccc3[nH]2)Cc2nc3ccccc3[nH]2)n1 [Example 166],6.43,5.95,,< 4.70 and > 4.30

# Further lines, results first:
pIC50 (human Fpn),pIC50 (ferroportin (Fpn)),DC50 (human Fpn-GFP fusion) [µM],pEC50 (human Fpn-GFP fusion),SMILES
5.16,< 4.98,,4.75,O=C(NCc1ncccc1F)c1cnn(C2CN(Cc3nc4ccccc4[nH]3)C2)c1 [Example 136]
4.20,5.32,,< 4.70 and > 4.30,O=C(NCc1ncccc1F)c1csc(CCNCc2ccc3nc[nH]c3c2)n1 [Example 139]
5.16,5.43,,< 4.70 and > 4.30,O=C(NCc1ncccc1F)c1csc(CCNCc2cccc3nc[nH]c23)n1 [Example 140]
5.89,5.51,25.3,,O=C(NCc1ncccc1F)c1cccc(CCNCCc2nc3ccccc3[nH]2)n1 [Example 146]
6.25,6.27,0.813,,O=C(NCc1ncccc1F)c1cccc(CCN(CCc2nc3ccccc3[nH]2)CCc2nc3ccccc3[nH]2)n1 [Example 147]
5.54,5.65,14.4,,O=C(NCC1CCCCN1)c1csc(CCNCc2nc3ccccc3[nH]2)n1 (stereo not shown) [Example 185]
,,,5.38,"O=C(NCc1ncccc1F)c1csc([C@H]2[C@@H]3CN(Cc4nc5ccccc5[nH]4)C[C@@H]32)n1 [Example Compound No. 213, 2-[(1R,5S,6S)-3-(1H-1,3-Benzodiazol-2-ylmethyl)-3-azabicyclo[3.1.0]hexan-6-yl]-N-[(3-fluoropyridin-2-yl)methyl]-1,3-thiazole-4-carboxamide Trihydrochloride]"
